The record followed here is PubChem BioAssay (NCI).

Experiment in all cases: NCI anticancer screen, dose series, 48 h
Assay [1] deals with A549 NSCLC.
The test system of assay [2] is HCC-2998 colon.
For assay [3], the system named is A498 renal.
In assay [4] the test system is TK-10 renal.
Assay [5] has as its system M14 melanoma.
Assay [6] deals with SNB-19 CNS.
Assay [7] relates to DU-145 prostate.
For assay [8], the system named is RPMI-8226 leukemia.
For assay [9], the system named is COLO 205 colon.
Assay [10] concerns MALME-3M melanoma.

Where “and” joins values, the source holds several entries; their conditions need not be identical. Equal values may be shown once.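 How tested: cells in 96-well plates exposed to compound for 48 hours at five concentrations. GI50: concentration for 50% inhibition of growth. TGI is the concentration that stops growth completely.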

For the compound `Cc1cc(O)c(O)c(Oc2cc(C)cc(O)c2O)c1`, the TGI in assay [1] is over 100 µM; in assay [2], over 100 µM; in assay [3] it was over 100 µM; in assay [4], 36.3 µM; in [5], 49.3 µM; in assay [6], over 100 µM. Also, the TGI in [7] is over 100 µM; in assay [8], over 100 µM; in [9], 36.4 µM.

Regarding `Cc1csc(-c2ccc3c(c2)COC3(CCCN(C)C)c2ccc(F)cc2)c1` (stereo not given), the GI50 in [10] was 1.74 µM; in assay [1], 2.02 µM; in assay [2] it was 1.79 µM; in assay [4], 1.83 µM; in assay [5], 1.81 µM; in [6] it was 1.75 µM. Also, the GI50 is 1.91 µM in assay [7], 2.2 µM in [8] and 2.59 µM in [9]. Besides, the TGI is 3.34 µM in assay [10]; 4.24 µM in assay [1]; 3.3 µM in assay [2]; 3.72 µM in [4]; 3.59 µM in assay [5]; 3.31 µM in assay [6]. In addition, the TGI in assay [7] was 3.56 µM; in assay [8], 4.76 µM; in assay [9] it was 5.64 µM.

In the case of `Nc1nc(Cl)nc2c1ncn2C1CCC(COP(=O)(O)OP(=O)(O)OP(=O)(O)O)O1` (stereo not given), the TGI in assay [10] is over 100 µM; in assay [1] it was 78.8 µM; in [2], 86.1 µM; in assay [3] it was over 100 µM; in assay [4], over 100 µM; in assay [5] it was 36.7 µM. The results for the TGI in assay [6], in assay [7] and in assay [9] were over 100 µM, 69.8 µM and 41.7 µM, respectively.

Take `Cc1nn(-c2ccccc2)c(C)c1/C=N/N1CCN(Cc2ccccc2)CC1`: the GI50 is over 100 µM in assay [1]; 28.7 µM in [4]; over 100 µM in [6]; 96.4 µM in assay [7]; 19.9 µM in assay [8]; 41 µM in [9]. In addition, the TGI was over 100 µM in [1]; over 100 µM in assay [4]; over 100 µM in assay [6]; over 100 µM in assay [7]; 48.9 µM in assay [8]; over 100 µM in assay [9].

For the compound `C=CCCC(O)c1ccc(CCCCCCCCCCC)o1` (stereo not given), the GI50 is 15.6 µM in [10]; 18.6 µM in assay [1]; 18.4 µM in [2]; 15.8 µM in assay [4]; 17.2 µM in assay [5]; 18.8 µM in [6]. Further, the GI50 was 16.4 µM in [7], 14 µM in [8] and 17.9 µM in assay [9]. For the same compound, the TGI in [10] worked out at 33.8 µM; in assay [1], 35.1 µM; in [2] it was 36.5 µM; in assay [4], 31.9 µM; in assay [5], 32.4 µM; in assay [6], 35 µM. The values for the TGI in assay [7], in assay [8] and in assay [9] were 31.1 µM, 38.6 µM and 35.3 µM, respectively.

On to `COc1ccc(C(=O)c2cc(OC)c(OC)c(OC)c2)cc1/C=C/C(=O)c1ccc2c(c1)OCO2`, for which the GI50 is 2.38 µM in assay [10]; 4.39 µM in [1]; 2.43 µM in assay [3]; 3.92 µM in [4]; 4.25 µM in assay [7]; 3.51 µM in assay [9]. The TGI in [10] is 6.61 µM; in assay [1], over 100 µM; in assay [3], 16.7 µM; in assay [4], 14.7 µM; in assay [7] it was over 100 µM; in assay [9] it was over 100 µM.

With `Cc1ccc(C)c(N2C(=O)C(=O)c3c(C)ccc(C)c32)c1`, the TGI in [10] is 96.5 µM; in assay [1], over 100 µM; in assay [4], 85 µM; in [5] it was 39.6 µM; in assay [6], over 100 µM; in [7], over 100 µM. This compound displayed a TGI in assay [9] of over 100 µM.

For the compound `C/C=C1\C[C@@H]2C(OC)Nc3cc(O)c(OC)cc3C(=O)N2C1` (stereo not given in full), the GI50 in assay [10] is 0.00501 µM; in [1] it was 0.0215 µM; in assay [2], under 0.0178 µM; in assay [7] it was 0.00348 µM; in assay [8], 0.00269 µM. For the same compound, the TGI is 0.0148 µM in [10]; over 100 µM in assay [1]; 0.0358 µM and 0.023 µM in [2]; 0.0834 µM in assay [3]; 0.0428 µM and < 0.032 µM in [5]; 0.0248 µM and 0.21 µM in [7]. This compound also gave a TGI in assay [9] of 0.0212 µM.

As to `CN1CCN(CCCOc2ccc3nc(Nc4ccc(C(F)(F)F)c(Cl)c4)ccc3c2)CC1`, the GI50 in [1] was 1.92 µM; in [2] it was 1.72 µM; in [3], 0.932 µM; in assay [4], 1.8 µM; in assay [5], 1.71 µM; in [6], 1.74 µM. Also, the results for the GI50 in [7], in assay [8] and in assay [9] were 1.58 µM, 1.75 µM and 1.7 µM, respectively. Besides, the TGI stood at 3.48 µM in assay [1]; 3.26 µM in assay [2]; 2.54 µM in assay [3]; 3.51 µM in assay [4]; 3.32 µM in [5]; 3.6 µM in [6]. The TGI is 3.09 µM in assay [7], 4.12 µM in [8] and 3.49 µM in assay [9].

`C(=C\c1nc2ccccc2s1)/c1ccc(N2CCOCC2)s1`: the GI50 was 72 µM in assay [10]; 31.8 µM in [1]; over 100 µM in [3]; 48.4 µM in assay [4]; over 100 µM in assay [5]; 51.4 µM in [6]. Also, the GI50 is 48.8 µM in assay [7], 25.6 µM in assay [8] and over 100 µM in assay [9]. For the same compound, the TGI in [10], in assay [1], in assay [3], in assay [4], in assay [5] and in [6] was over 100 µM in each case. Further, the TGI in assay [7], in assay [8] and in [9] was over 100 µM throughout.

`CCCN(CCC)c1ccc(/C=N/NC(=O)c2cccnc2)cc1`: the GI50 is 41.8 µM in assay [10]; 27.5 µM in assay [1]; 25 µM in assay [2]; 10.2 µM in assay [3]; 32.4 µM in assay [4]; 53.8 µM in assay [6]. Further, the GI50 was 36.1 µM in [7], 80.5 µM in assay [8] and 31.5 µM in assay [9]. For the same compound, the TGI in assay [10] was over 100 µM; in [1], over 100 µM; in assay [2], over 100 µM; in [3], 22.3 µM; in assay [4], over 100 µM; in assay [6], over 100 µM. Besides, the TGI in [7], in [8] and in [9] was over 100 µM throughout.

Consider `CC(C)N(C(=O)C12C3C4C5C3C1(C#N)C5C42)C(C)C` (stereo not given), for which the TGI in [10], in assay [1], in [2], in assay [3], in assay [4] and in assay [5] was over 100 µM throughout. For the same compound, the TGI in assay [6], in assay [8] and in assay [9] was over 100 µM in each case.

As to `COc1ccc(OC)c(-c2cc(C(=O)O)c3cc4ccccc4cc3n2)c1`, the TGI in assay [10], in [1], in [3], in [4], in assay [5] and in assay [6] was over 100 µM each time. The TGI in [7], in assay [8] and in assay [9] was over 100 µM each time.

With `NC(=O)OCC(COc1ccc(Cl)cc1)OC(=O)c1cc([N+](=O)[O-])cc([N+](=O)[O-])c1` (stereo not given), the TGI in [10], in [1], in [2], in [3], in [4] and in assay [5] was over 100 µM in each case. Also, the TGI in assay [6], in assay [8] and in assay [9] was over 100 µM in each case.

As to `O=C(O)C1CCCCC1C(=O)Nc1nc2ccccc2[nH]1` (stereo not given), the TGI in assay [10], in assay [1], in assay [3], in assay [4], in assay [5] and in assay [6] was over 100 µM throughout. The TGI in assay [7], in assay [8] and in [9] was over 100 µM throughout.

For the compound `Cc1cccc2c1ccc1c3occ(C)c3c(=O)oc21`, the GI50 in assay [10], in assay [1], in [2], in [4], in [5] and in [6] was over 100 µM each time. The GI50 in assay [7], in assay [8] and in assay [9] was over 100 µM each time. Also, the TGI in assay [10], in assay [1], in assay [2], in assay [4], in assay [5] and in [6] was over 100 µM each time. For the same compound, the TGI in [7], in assay [8] and in assay [9] was over 100 µM in each case.

Turning to `CS(=O)(=O)N(CC(=O)O)Cc1ccccc1`, the TGI in assay [10], in [1], in assay [3], in assay [4], in [5] and in [6] was over 100 µM each time. Further, the TGI in [7], in assay [8] and in [9] was over 100 µM throughout.

Turning to `COc1ccc2cc(C(=O)/C=C/c3ccco3)ccc2c1`, the GI50 was 31 µM in assay [10]; 31.8 µM in assay [1]; 25.6 µM in assay [4]; 0.19 µM in [5]; over 100 µM in assay [6]; 23.9 µM in assay [7]. The GI50 was 32 µM in [8] and 51.2 µM in assay [9]. In addition, the TGI in assay [10] was over 100 µM; in assay [1], over 100 µM; in [4] it was 70 µM; in assay [5], 12.6 µM; in assay [6], over 100 µM; in assay [7], 88.6 µM. For the same compound, the TGI in [8] is 99.3 µM; in assay [9], over 100 µM.

As to `O=C(NCc1cccs1)OC1CC2CCC1C2` (stereo not given), the TGI in assay [10], in assay [1], in assay [3], in assay [4], in [5] and in [6] was over 100 µM throughout. Besides, the TGI in assay [7], in assay [8] and in [9] was over 100 µM in each case.

As to `CCCCC/C=C\C/C=C/CCCCCCCCNC(=O)Nc1ccc([N+](=O)[O-])cc1`, the GI50 in [10] is 25.2 µM; in assay [1] it was 38.2 µM; in assay [2], 15.7 µM; in assay [4], over 100 µM; in assay [5], 6.9 µM; in assay [6], 9.07 µM. In addition, the values for the GI50 in [7], in [8] and in [9] were 40.1 µM, 4.54 µM and 15 µM, respectively. Further, the TGI in assay [10] is 84.4 µM; in [1], over 100 µM; in assay [2] it was over 100 µM; in [4], over 100 µM; in assay [5] it was 77.5 µM; in assay [6] it was over 100 µM. Also, the TGI in [7] is over 100 µM; in assay [8], 39.5 µM; in assay [9], 28.9 µM.

Take `O=C(O)CP(=O)(c1ccccc1)c1ccccc1.O=C(O)CP(=O)(c1ccccc1)c1ccccc1.[Cd]`: the GI50 is 0.536 µM in assay [10]; 17.1 µM in assay [1]; 19.9 µM in assay [3]; 16.9 µM in [4]; 17.3 µM in [5]; 48.1 µM in assay [6]. Moreover, the GI50 in assay [7] was 19.4 µM; in [8], 0.277 µM; in [9] it was 31.8 µM. For the same compound, the TGI in assay [10] was 3.76 µM; in [1], 35.1 µM; in assay [3], 39.8 µM; in [4], 34.5 µM; in assay [5], 53.8 µM; in [6], over 100 µM. In addition, the TGI in assay [7] was 41.3 µM; in [8] it was 0.991 µM; in assay [9], over 100 µM.
